For data set [1], the target named is T1, recombinant rat CyPA-GST fusion protein (Rattus norvegicus, UniProt P10111).
T1 construct: made in house; host or cells: E. coli BL21
As to the kind of experiment: Rotamase (PPIase) inhibition, chymotrypsin-coupled cuvette assay, rat CyPA-GST fusion protein. Format: biochemical. The settings on record: Table A, value with asterisk: recombinant rat CyPA-GST fusion protein.

Data set [2] relates to nigrostriatal dopaminergic fibers. As to the kind of experiment: MPTP-lesioned mouse model of Parkinson's disease, striatal TH fiber density. The settings on record: for % protection of striatal tyrosine hydroxylase-immunoreactive fibres: 10 mg/kg s.c. once daily days 1-5, one hour prior to MPTP, perfused day seven. Format: in vivo, CD1 albino mice.
The target of data set [3] is T1, recombinant rat CyPA-GST fusion protein. As to the kind of experiment: Semiautomated microtiter plate assay of rotamase activity inhibition, rat CyPA-GST fusion protein. Format: biochemical. The settings on record: Table B, value with asterisk: recombinant rat CyPA-GST fusion protein. As for the experimental part:
(§1) The Cyclophilin utilized was a human recombinant CyPA, [Yoo et al., J. Mol. Biol., 269 (1997) 780-95].
The resulting fragment (573 base pairs) was cloned into pCRII and amplified. The CyP sequence was cut out with Sma1 and EcoR1 and cloned into the Sma1/EcoR1 sites in pGEX2TK (Pharmacia). This plasmid was transformed into BL21 E. coli cells for expression of the GST-CyPA fusion protein.
(§2) Rotamase inhibition was determined using a semiautomated microtiter plate assay modification of the above described assay [see Küllertz et al., Clin. Chem. 44, 502-508 (1998)]. All dilutions of CyPA, peptide substrate, and chymotrypsin were made in 35 mM ice-cold HEPES buffer. Fifty μL of CyPA solution is added to 50 μL of the peptide substrate solution (Phe-Pro-Phe p-nitroanilide, 0.16 mg/ml) in a glass microtiter well plate (the concentration of human recombinant CyP being adjusted so that the reaction rate is increased by a factor of 3 as compared to an uncatalyzed control reaction wherein the peptide substrate is degraded by chymotrypsin alone, in the absence of CyPA and test compound). Using a Beckman Multimek™ 96 automated 96-channel pipettor, 5 μL of test compound solution, or a DMSO blank, were added to each well for a 30 minute preincubation at 4° C. One hundred μL of chymotrypsin solution (1 mg/mL) were added to each well and the absorbance at 390 nm versus time was monitored for 9-10 minutes using a BioRad Ultramark plate reader maintained at 4° C. and the rate constants were determined from the absorbance versus time data files.
(§3) IC50 values which were obtained for representative compounds are presented in the following Table B. The cyclophilin utilized was a human recombinant CyPA. […] While CyP A was used in these examples, other CyP proteins can be substituted.

In data set [4] the test system is SMI-32 immunoreactive neurons of lumbar spinal cord slices. Kind of data set: Neuroprotection assay in spinal cord slice preparations (THA-induced cell death). The settings on record: THA 200 μM + compound 10 μM. Format: cell-based, Sprague-Dawley rat. On the procedure: All cultures were derived from postnatal day 8 (P8) Sprague-Dawley rat lumbar spinal cord slices of 325 micrometer thickness, prepared using a commercially available McIlwain tissue chopper. Each experiment consisted of two 6-well plates with 5 slices from 4 different animals per well. Media changes were performed every 3 to 4 days. Cultures were treated with THA [L(−)-threo-3-hydroxyaspartic acid; Tocris Cookson Inc., Ballwin, Mo.] at 200 μM+compound (10 μM) after one week in culture. The control was an untreated sample with 0.1% DMSO as vehicle. The THA control was a THA treated sample with 0.1% DSMO as vehicle. Two wells were used per condition. One media change with new THA and compounds was performed. […]
Slices were permeabilized with 100% cold methanol for 10 minutes, subsequently washed 3×in 0.1M phosphate buffer and transferred to staining wells. […] Quantification of surviving neurons was performed on a Zeiss Axiovert microscope. Neuronal survival was determined by observing an intact neuronal cell body with processes located ventrally of the central canal in each hemisphere. […] Each hemisphere was counted individually. The statistics were performed with StatView™ software on a minimum of three different experiments per condition and significance was determined as compared to THA control. […]

The target in data set [5] is T2, human recombinant CyPA (Homo sapiens, UniProt P62937). As to the kind of experiment: Rotamase (PPIase) inhibition, chymotrypsin-coupled cuvette assay, human recombinant CyPA. In kind it is biochemical. The settings on record: Table A, value without asterisk: human recombinant CyPA.
T2 sequence (P62937 whole entry): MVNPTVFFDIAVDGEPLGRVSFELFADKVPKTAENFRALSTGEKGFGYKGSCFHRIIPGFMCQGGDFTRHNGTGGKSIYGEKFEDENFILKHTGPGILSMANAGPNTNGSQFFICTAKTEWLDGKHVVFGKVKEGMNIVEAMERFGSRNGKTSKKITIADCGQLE
From the text: A number of substrates for rotamase are known in the art or can be derived from those known. Typically, the substrate contacts a sample containing a protein with rotamase activity and the conversion of the substrate is detected after a period of time. The method for detecting conversion of the substrate will vary with the particular substrate chosen. One method has been termed the Ki test (See Harding, et al., Nature, 341:758-760 (1989); and Holt et al., J. Am. Chem. Soc., 115:9923-9938). The cis-trans isomerization of an alanine-proline bond in a model substrate, N-succinyl-Ala-Ala-Pro-Phe-p-nitroanilide (SEQ ID NO: 1), is monitored spectrophotometrically in a chymotrypsin-coupled assay. The action of chymotrypsin releases p-nitroaniline from only the trans form of the substrate. The amount of p-nitroaniline can be monitored in a spectrophotometer, for example. Other methods of detecting the presence of p-nitroaniline can also be used. The inhibition of this reaction caused by different concentrations of inhibitor is determined and the data are analyzed as a change in first-order rate constant as a function of inhibitor concentration, which yields the Ki value.
The following were added to a plastic cuvette: 950 μl of ice cold assay buffer (25 mM HEPES, pH 7.8, 100 mM NaCl), 10 μL of CyP A (2.5 μM in 10 mM Tris-Cl pH 7.5, 100 mM NaCl, 1 mM dithiothreitol), 25 μL of chymotrypsin (50 mg/ml in 1 mM HCl), and 10 μL of test compound, at various concentrations, in dimethyl sulfoxide. The reaction was initiated by the addition of 5 μL of substrate (succinyl-Ala-Phe-Pro-Phe-para-nitroanilide (SEQ ID NO: 1), 5 mg/mL in 470 mM LiCl in trifluoroethanol). The absorbance at 390 nm versus time was monitored for 90 seconds using a spectrophotometer and the rate constants were determined from the absorbance versus time data files.
The IC50 values which were obtained for representative compounds are given in the following Table A, and refer to the concentration that inhibits 50% of the rotamase activity in a sample.
as §1

For data set [6], the target named is T2, human recombinant CyPA. Kind of data set: Semiautomated microtiter plate assay of rotamase activity inhibition, human recombinant CyPA. In kind it is biochemical. The note with it: Table B, value without asterisk: human recombinant CyPA. On the procedure:
as §2, §3

T1 sequence (P10111 2-164): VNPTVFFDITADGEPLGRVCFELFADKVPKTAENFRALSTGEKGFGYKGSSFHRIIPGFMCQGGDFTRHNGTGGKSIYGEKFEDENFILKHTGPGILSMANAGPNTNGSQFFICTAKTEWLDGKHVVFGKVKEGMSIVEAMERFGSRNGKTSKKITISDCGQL

Turning to `S=C(Nc1cc(Cl)cc(Cl)c1)Nc1ccc(N2CCCCC2)c(NC(=S)Nc2cc(Cl)cc(Cl)c2)c1` [Compound 44], in data set [1], the IC50 stood at 374 nM. Also, in data set [2], the “% protection of striatal tyrosine hydroxylase-immunoreactive fibres” value is 25.1%.

Take `O=C(Nc1ccc(Cl)c(Cl)c1)c1cc(OCc2ccccc2)cc(C(=O)Nc2ccc(Cl)c(Cl)c2)c1` [Compound 43]: the IC50 in data set [1] was found to be 377 nM; in data set [3] it was 287 nM. In data set [4], the “protection from THA-induced cell death” value is recorded as “complete protection”. Further, in data set [4] (untreated control 26.4±4.2, THA control 18.97±2.04 (mean±standard error)), the “SMI-32 immunoreactive neurons per ventral hemisphere” value is listed as 28.14±2.4 cells/ventral hemisphere.

On to `O=C(Nc1cccc(C(F)(F)F)c1)c1cc(OCc2ccc3ccccc3c2)cc(C(=O)Nc2cccc(C(F)(F)F)c2)c1` [Compound 42, 1,3-Bis[(3-trifluoromethylphenyl)aminocarbonyl]-5-[(2-naphthyl)methyloxy]benzene], for which the concentration for half-maximal inhibition (IC50) in data set [1] stood at 230 nM. In data set [2], the “% protection of striatal tyrosine hydroxylase-immunoreactive fibres” value stood at 44.1%. Besides, the “striatal TH fiber density” value in data set [2] (regeneration protocol: MPTP days 1-5, compound once daily on days 8-12, perfused day 18) is on record as 88%.

In the case of `O=C(Nc1cc(Cl)c(Cl)c(Cl)c1)c1cc(OCc2ccc(Cl)c(Cl)c2)cc(C(=O)Nc2cc(Cl)c(Cl)c(Cl)c2)c1` [Compound 32, 1-(3,4-dichlorobenzyloxy)-3,5-bis-[(3,4,5-trichlorophenyl)aminocarbonyl]benzene], the IC50 in data set [5] was determined as 164 nM; in data set [1], 102 nM; in data set [6] it was 51.5 nM; in data set [3], 91.7 nM.

Regarding `Nc1cc(CN2C(=O)c3ccccc3C2=O)cc(NC(=S)Nc2cc(Cl)cc(Cl)c2)c1` [Compound 31, 2-{[3-amino-5-({[(3,5-dichlorophenyl)amino]thioxomethyl}amino)phenyl]methyl}isoindoline-1,3-dione], the results for the 50% inhibitory concentration (IC50) in data set [5], in data set [1] and in data set [3] were 1580 nM, 3530 nM and 6940 nM, respectively.

Regarding `O=C(Nc1cc(OCc2cccc3ccccc23)ccc1Br)c1cccc(C(F)(F)F)c1` [Compound 34, N-[2-bromo-5-(naphthylmethoxy)phenyl][3-(trifluoromethyl)phenyl]formamide], the melting point was 125 to 127 °C. Moreover, the IC50 in data set [5] turned out to be 11700 nM. The IC50 in data set [1] was 12000 nM. For the same compound, in data set [3], the IC50 was 9720 nM.

With `CN(C)c1ccc(Nc2ccc(NC(=S)Nc3cc(Cl)cc(Cl)c3)cc2NC(=S)Nc2cc(Cl)cc(Cl)c2)cc1` [Compound 35, [(3,5-dichlorophenyl)amino]{[5-({[(3,5-dichlorophenyl)amino]thioxomethyl}amino)-2-{[4-(dimethylamino)phenyl]amino}phenyl]amino}methane-1-thione], the figures for the IC50 in data set [1] and in data set [3] were 1310 nM and 353 nM, respectively.

For “(3-bromo-5-{N-[3-(trifluoromethyl)phenyl]carbamoyl}phenyl)-N-[3-(trifluoromethyl) phenyl]formamide [Compound 26]”, the IC50 was determined as 909 nM in data set [5] and 2540 nM in data set [6].

Source of the values: US6656971B2, “Trisubstituted carbocyclic cyclophilin binding compounds and their use” (Guilford Pharmaceuticals Inc., priority 2001, dated 2003).
